# In EPA's ToxRefDB 2:
# Assays:
# dog [1] = conditions: Subchronic oral toxicity in nonrodent, beagle, Capsule, dose end: 90 day, group: systemic, systemic / clinical chemistry / [other] / [other] + systemic / clinical chemistry / alkaline phosphatase (alp/alk) / alkaline phosphatase (…
# rat [2] = conditions: Subchronic oral toxicity in rodents, other, Feed, dose end: 90 day, group: systemic, systemic / in life observation / body weight / body weight gain + systemic / pathology microscopic / kidney / regeneration + systemic / …
# mouse [3] = conditions: Carcinogenicity, cd1, Oral, Feed, dose end: 78 week, group: systemic
# rat [4] = conditions: Combined chronic toxicity/carcinogenicity, sprague dawley, Oral, Feed, dose end: 24 month, group: systemic
# rat [5] = conditions: Prenatal developmental toxicity study, other, Oral, Gavage/Intubation, dose end: 15 GD
# rat [6] = conditions: Multigenerational reproductive toxicity study, sprague dawley, Oral, Feed, dose end: 2 generation
# rat [7] = conditions: Subchronic oral toxicity in rodents, sprague dawley, Feed, dose end: 90 day, group: systemic, systemic / organ weight / kidney / absolute + systemic / organ weight / kidney / relative to body weight + systemic / organ weight / kidney…
# mouse [8] = conditions: Carcinogenicity, b6c3f1, Oral, Gavage/Intubation, dose end: 18 month, group: systemic
# rat [9] = conditions: Prenatal developmental toxicity study, fischer, Dermal, Topical, dose end: 15 GD, group: maternal
# rat [10] = conditions: Carcinogenicity, fischer, Oral, Gavage/Intubation, dose end: 24 month, group: systemic
# mouse [11] = conditions: Carcinogenicity; other; Oral; Feed; dose end: 24 month; group: systemic; systemic / clinical chemistry / alkaline phosphatase (alp/alk) / alkaline phosphatase (alp/alk) + systemic / organ weight / heart / nos + …
# rat [12] = conditions: Subchronic oral toxicity in rodents, wistar, Feed, dose end: 13 week, group: systemic, systemic / clinical chemistry / [other] / [other] + systemic / clinical chemistry / alkaline phosphatase (alp/alk) / alkaline phosphatase (…
# mouse [13] = conditions: Subchronic oral toxicity in rodents, other, Feed, dose end: 13 week, group: systemic
# rat [14] = conditions: Combined chronic toxicity/carcinogenicity, wistar, Oral, Feed, dose end: 2 year, group: systemic
# dog [15] = conditions: Chronic toxicity, beagle, Oral, Feed, dose end: 15 month, group: systemic
# rat [16] = conditions: Combined chronic toxicity/carcinogenicity, other, Oral, Feed, dose end: 2 year, group: systemic
# rat [17] = conditions: Multigenerational reproductive toxicity study, sprague dawley, Oral, Feed, dose end: 2 generation; remark: listed apart in the source
# rat [18] = conditions: Combined chronic toxicity/carcinogenicity, other, Oral, Feed, dose end: 2 year, group: systemic; remark: listed apart in the source
# rat [19] = conditions: Subchronic oral toxicity in rodents, other, Feed, dose end: 3 month, group: systemic
# rabbit = conditions: Prenatal developmental toxicity study, other, Oral, Gavage/Intubation, dose end: 19 GD
# rat [20] = conditions: Multigenerational reproductive toxicity study, other, Oral, Feed, dose end: 2 generation
# mouse [21] = conditions: Carcinogenicity, other, Oral, Feed, dose end: 18 month, group: systemic
# dog [22] = conditions: Chronic toxicity; beagle; Oral; Capsule; dose end: 12 month; group: systemic; systemic / in life observation / clinical signs / fur (altered appearance) + systemic / in life observation / clinical signs / skin …
# dog [23] = conditions: Subchronic oral toxicity in nonrodent, beagle, Capsule, dose end: 91 day, group: systemic
# [24] = systemic / in life observation / mortality / mortality + systemic / organ weight / kidney / absolute + systemic / organ weight / kidney / …
# [25] = systemic / in life observation / body weight / body weight + systemic / in life observation / body weight / body weight gain + systemic / in…
# [26] = group: developmental, developmental / developmental malformation / aortic arch / retroesophageal + developmental / developmental malformation / bone / misshapen…
# [27] = group: maternal, systemic / in life observation / body weight / body weight + systemic / in life observation / body weight / body weight gain
# [28] = group: maternal, systemic / in life observation / body weight / body weight + systemic / in life observation / body weight / body weight gain + reproductive…
# [29] = group: offspring, developmental / offspring survival late / [other] / [other] + developmental / offspring survival late / viability index / viability index + …
# [30] = group: offspring, systemic / pathology microscopic / kidney / dilatation
# [31] = group: parental, systemic / in life observation / body weight / body weight + systemic / in life observation / food consumption / food consumption + systemic…
# [32] = systemic / organ weight / testes / relative to body weight
# [33] = systemic / organ weight / testes / relative to body weight + systemic / pathology microscopic / liver / carcinoma + systemic / hematology / …
# [34] = systemic / in life observation / clinical signs / scabbing
# [35] = systemic / in life observation / body weight / body weight gain + systemic / in life observation / clinical signs / labored respiration + …
# [36] = systemic / organ weight / stomach / relative to body weight + systemic / in life observation / body weight / body weight gain
# [37] = systemic / pathology microscopic / liver / necrosis
# [38] = systemic / pathology microscopic / liver / necrosis + systemic / clinical chemistry / [other] / [other] + systemic / pathology microscopic…
# [39] = systemic / clinical chemistry / albumin / albumin + systemic / clinical chemistry / alkaline phosphatase (alp/alk) / alkaline phosphatase (…
# [40] = systemic / pathology gross / liver / accentuated lobular pattern + systemic / pathology microscopic / liver / fatty change
# [41] = systemic / pathology gross / liver / accentuated lobular pattern + systemic / pathology microscopic / liver / fatty change + systemic / …
# [42] = systemic / pathology microscopic / lung / cholesterol cleft(s) + systemic / pathology microscopic / lung / foam cell aggregation
# [43] = systemic / pathology microscopic / lung / cholesterol cleft(s) + systemic / pathology microscopic / lung / foam cell aggregation + systemic…
# [44] = group: offspring, developmental / developmental landmark / eye opening / eye opening + developmental / developmental landmark / incisor eruption / incisor …
# [45] = group: offspring, systemic / organ weight / adrenal gland / absolute
# [46] = group: parental, systemic / organ weight / uterus / absolute
# [47] = systemic / in life observation / body weight / body weight + systemic / in life observation / body weight / body weight gain
# [48] = systemic / in life observation / body weight / body weight + systemic / pathology microscopic / liver / hypertrophy + systemic / pathology …
# [49] = group: developmental, developmental / developmental malformation / bone / fused
# [50] = group: maternal, systemic / in life observation / body weight / body weight gain + systemic / in life observation / food consumption / food consumption + …
# [51] = group: offspring, systemic / in life observation / body weight / offspring (pup) weight
# [52] = group: offspring, systemic / in life observation / body weight / offspring (pup) weight + developmental / developmental landmark / eye opening / eye opening
# [53] = group: parental, systemic / pathology microscopic / kidney / pigmentation + systemic / pathology microscopic / spleen / erythrophagocytosis
# [54] = group: parental, systemic / pathology microscopic / kidney / pigmentation + systemic / pathology microscopic / spleen / erythrophagocytosis + systemic / in …
# [55] = systemic / in life observation / body weight / body weight + systemic / in life observation / body weight / body weight gain + systemic / …
# [56] = systemic / in life observation / clinical signs / vomitting + systemic / organ weight / liver / relative to body weight + systemic / …
smiles,measurement,setting,value
"O=C(O)CCCOc1ccc(Cl)cc1Cl [2,4-DB]",LEL,dog [1],25 mg/kg/day
same,LOAEL,dog [1],25 mg/kg/day
same,NEL,dog [1],8 mg/kg/day
same,NOAEL,dog [1],8 mg/kg/day
same,LEL,rat [2],50 mg/kg/day
same,LOAEL,rat [2],50 mg/kg/day
same,NEL,rat [2],15.8 mg/kg/day
same,NOAEL,rat [2],15.8 mg/kg/day
same,LOAEL,mouse [3]; [24],112 mg/kg/day
same,NOAEL,mouse [3]; [24],37.5 mg/kg/day
same,LEL,mouse [3]; systemic / in life observation / mortality / mortality + systemic / pathology microscopic / kidney / amyloid deposition + systemic / …,112 mg/kg/day
same,NEL,mouse [3]; systemic / organ weight / kidney / absolute + systemic / organ weight / kidney / relative to body weight + systemic / organ weight / liver…,37.5 mg/kg/day
same,LOAEL,rat [4]; [25],30 mg/kg/day
same,NOAEL,rat [4]; [25],3 mg/kg/day
same,NEL,rat [4]; systemic / organ weight / liver / absolute + systemic / organ weight / heart / absolute + systemic / organ weight / spleen / absolute + …,90 mg/kg/day
same,LEL,rat [5]; [26],125 mg/kg/day
same,LOAEL,rat [5]; [26],125 mg/kg/day
same,NEL,rat [5]; [26],62.5 mg/kg/day
same,NOAEL,rat [5]; [26],62.5 mg/kg/day
same,LEL,rat [5]; [27],62.5 mg/kg/day
same,LOAEL,rat [5]; [27],62.5 mg/kg/day
same,NEL,rat [5]; [28],31.2 mg/kg/day
same,NOAEL,rat [5]; [28],31.2 mg/kg/day
same,LOAEL,rat [6]; [29],112 mg/kg/day
same,NOAEL,rat [6]; [29],25 mg/kg/day
same,LEL,rat [6]; [30],25 mg/kg/day
same,NEL,rat [6]; [30],5 mg/kg/day
same,LEL,rat [6]; [31],112 mg/kg/day
same,LOAEL,rat [6]; [31],112 mg/kg/day
same,NEL,rat [6]; [31],25 mg/kg/day
same,NOAEL,rat [6]; [31],25 mg/kg/day
same,LEL,rat [7],41.9 mg/kg/day
same,LOAEL,rat [7],41.9 mg/kg/day
same,NEL,rat [7],4.16 mg/kg/day
same,NOAEL,rat [7],4.16 mg/kg/day
CCCCC(CC)CO (configuration not stated) [2-Ethyl-1-hexanol],LEL,mouse [8]; [32],50 mg/kg/day
same,NEL,mouse [8]; [32],< 50 mg/kg/day
same,LOAEL,mouse [8]; [33],> 750 mg/kg/day
same,NOAEL,mouse [8]; [33],≥ 750 mg/kg/day
same,LOAEL,rat [9]; systemic / in life observation / clinical signs / erythema + systemic / in life observation / clinical signs / scabbing + systemic / …,840 mg/kg/day
same,LEL,rat [9]; [34],252 mg/kg/day
same,NEL,rat [9]; [34],< 252 mg/kg/day
same,LOAEL,rat [10]; [35],> 500 mg/kg/day
same,NOAEL,rat [10]; [35],≥ 500 mg/kg/day
same,LEL,rat [10]; [36],50 mg/kg/day
same,NEL,rat [10]; [36],< 50 mg/kg/day
COC(=O)C(C)Oc1ccc(Oc2ccc(Cl)cc2Cl)cc1 (configuration not stated) [Diclofop-methyl],LEL,mouse [11],0.76 mg/kg/day
same,LOAEL,mouse [11],0.76 mg/kg/day
same,NEL,mouse [11],0.24 mg/kg/day
same,NOAEL,mouse [11],0.24 mg/kg/day
same,LEL,rat [12],6.32 mg/kg/day
same,LOAEL,rat [12],6.32 mg/kg/day
same,NOAEL,rat [12],1.56 mg/kg/day
same,LEL,mouse [13]; [37],0.3 mg/kg/day
same,NEL,mouse [13]; [37],< 0.3 mg/kg/day
same,LOAEL,mouse [13]; [38],1 mg/kg/day
same,NOAEL,mouse [13]; [38],0.3 mg/kg/day
same,LEL,rat [14]; [39],2.3 mg/kg/day
same,LOAEL,rat [14]; [39],2.3 mg/kg/day
same,NOAEL,rat [14]; [39],0.23 mg/kg/day
same,NEL,rat [14]; systemic / hematology / hemoglobin (hgb) / hemoglobin (hgb) + systemic / hematology / erythrocyte (rbc) count differential / erythrocyte (…,0.23 mg/kg/day
same,LEL,dog [15]; [40],0.625 mg/kg/day
same,LOAEL,dog [15]; [40],0.625 mg/kg/day
same,NEL,dog [15]; [41],0.2 mg/kg/day
same,NOAEL,dog [15]; [41],0.2 mg/kg/day
same,LEL,rat [16]; [42],0.32 mg/kg/day
same,LOAEL,rat [16]; [42],0.32 mg/kg/day
same,NEL,rat [16]; [43],0.1 mg/kg/day
same,NOAEL,rat [16]; [43],0.1 mg/kg/day
same,LOAEL,rat [17]; [44],7.3 mg/kg/day
same,NOAEL,rat [17]; [44],2.1 mg/kg/day
same,LEL,rat [17]; [45],0.9 mg/kg/day
same,NEL,rat [17]; [45],< 0.9 mg/kg/day
same,LOAEL,"rat [17]; group: parental, systemic / organ weight / liver / absolute + systemic / organ weight / liver / relative to body weight",2.1 mg/kg/day
same,NOAEL,"rat [17]; group: parental, systemic / organ weight / liver / absolute + systemic / organ weight / liver / relative to body weight + systemic / organ weight / kidney / …",0.7 mg/kg/day
same,LEL,rat [17]; [46],0.9 mg/kg/day
same,NEL,rat [17]; [46],< 0.9 mg/kg/day
CO/N=C(/C(=O)OC)c1ccccc1CO/N=C(\C)c1cccc(C(F)(F)F)c1 [Trifloxystrobin],LEL,rat [18]; [47],29.7 mg/kg/day
same,LOAEL,rat [18]; [47],29.7 mg/kg/day
same,NEL,rat [18]; [25],9.81 mg/kg/day
same,NOAEL,rat [18]; [25],9.81 mg/kg/day
same,NEL,rat [19]; systemic / clinical chemistry / urea nitrogen / urea + systemic / urinalysis / ph / ph + systemic / clinical chemistry / glucose / glucose…,618 mg/kg/day
same,LOAEL,rat [19]; [48],127 mg/kg/day
same,NOAEL,rat [19]; [48],30.6 mg/kg/day
same,LEL,rabbit; [49],500 mg/kg/day
same,LOAEL,rabbit; [49],500 mg/kg/day
same,NEL,rabbit; [49],250 mg/kg/day
same,NOAEL,rabbit; [49],250 mg/kg/day
same,LEL,rabbit; [50],50 mg/kg/day
same,LOAEL,rabbit; [50],50 mg/kg/day
same,NEL,rabbit; [50],10 mg/kg/day
same,NOAEL,rabbit; [50],10 mg/kg/day
same,LEL,rat [20]; [51],65.5 mg/kg/day
same,LOAEL,rat [20]; [51],65.5 mg/kg/day
same,NEL,rat [20]; [52],4.2 mg/kg/day
same,NOAEL,rat [20]; [52],4.2 mg/kg/day
same,LEL,rat [20]; [53],55.3 mg/kg/day
same,LOAEL,rat [20]; [53],55.3 mg/kg/day
same,NEL,rat [20]; [54],3.8 mg/kg/day
same,NOAEL,rat [20]; [54],3.8 mg/kg/day
same,LEL,mouse [21]; [47],35.7 mg/kg/day
same,LOAEL,mouse [21]; [47],35.7 mg/kg/day
same,NEL,mouse [21]; [55],3.51 mg/kg/day
same,NOAEL,mouse [21]; [55],3.51 mg/kg/day
same,LEL,dog [22],50 mg/kg/day
same,LOAEL,dog [22],50 mg/kg/day
same,NEL,dog [22],5 mg/kg/day
same,NOAEL,dog [22],5 mg/kg/day
same,LEL,dog [23]; systemic / clinical chemistry / bilirubin / total bilirubin,30 mg/kg/day
same,LOAEL,dog [23]; [56],150 mg/kg/day
same,NEL,dog [23]; [56],5 mg/kg/day
same,NOAEL,dog [23]; [56],30 mg/kg/day
